# According to patent US20240327334A1, “Covalent Inhibitors As Antiviral Agents” (Enanta Pharmaceuticals, Inc., priority 2022, published 2024):
# pEC50, pIC50: −log10 of the molar value.
# Assays:
# [1] = target: SARS-CoV-2 Papain-like (PLpro) protease (Severe acute respiratory syndrome coronavirus 2, UniProt P0DTD1); test: SARS-CoV-2 Papain-like (PLpro) protease biochemical enzyme inhibition assay (ubiquitin-fluorophore substrate, Ub-R110); settings: Ub-R110 substrate; run in duplicate; read-out: PLpro IC50
# SARS-CoV-2 replicon = test: microbe, parasite or virus in culture; assay type: cell-based; settings: Severe acute respiratory syndrome coronavirus 2, Huh-7
SMILES,pIC50 [1],pEC50 (SARS-CoV-2 replicon)
O=C(NC/C=C/C(=O)N1CC(F)(F)C1)C(=O)NCc1ccccc1C(=O)NC1(c2cccc3ccccc23)CC1 [Example 554],6.00 to 7.00,5.00 to 6.00
C[C@@H](C#Cc1ccc(C#N)cc1OC(F)(F)F)NC(=O)C(=O)NCc1ccccc1C(=O)NC1(c2ccc3nn(C)cc3c2)CC1 [Example 206],> 7.00,> 6.00
N#Cc1cccc(NC(=O)/C=C/CNC(=O)C(=O)NCc2ccccc2C(=O)NC2(c3cccc4ccccc34)CC2)c1 [Example 574],6.00 to 7.00,5.00 to 6.00
C#CCNC(=O)C(=O)NCc1ccccc1C(=O)NC1(c2ccc3nn(C)cc3c2)CC1 [Example 338],> 7.00,> 6.00
O=C(NCC#Cc1nccs1)C(=O)NCc1ccccc1C(=O)NC1(c2ccc3c4c(cccc24)CC3)CC1 [Example 440],> 7.00,> 6.00
N#CCNC(=O)C(=O)NCc1ccccc1C(=O)NC1(c2cc(-c3ccn(C4CC4)n3)cc(F)c2F)CC1 [Example 306],> 7.00,> 6.00
Cc1nn(C)c(C)c1-c1cc(C2(NC(=O)c3ccccc3CNC(=O)C(=O)NCC#Cc3nccs3)CC2)cc2ccccc12 [Example 299],> 7.00,> 6.00
N#CN1CCC(C(=O)NCc2ccccc2C(=O)NC2(c3cccc4ccccc34)CC2)C1 (centres unmarked) [Example 115],> 7.00,> 6.00
CN1CCC(n2cc(-c3cc(F)cc(C4(NC(=O)c5ccccc5CNC(=O)C(=O)NCC#Cc5ncco5)CC4)c3)cn2)CC1 [Example 257],> 7.00,> 6.00
O=C(NCC#Cc1nccs1)C(=O)NCc1ccccc1C(=O)NC1(c2cc(Cl)cc(-c3cncs3)c2)CC1 [Example 446],> 7.00,> 6.00
C[C@@H](C#Cc1nccs1)NC(=O)C(=O)NCc1ccccc1C(=O)NC1(c2cc(Cl)cc(-c3nccs3)c2)CC1 [Example 494],> 7.00,> 6.00
CC(C)n1ccnc1C#CCNC(=O)C(=O)NCc1ccccc1C(=O)NC1(c2cc(F)cc(-c3cnn(C4CC4)c3)c2)CC1 [Example 277],> 7.00,> 6.00
CN(C)CCn1cc(-c2cc(F)cc(C3(NC(=O)c4ccccc4CNC(=O)C(=O)NCC#Cc4ccccn4)CC3)c2)cn1 [Example 250],> 7.00,> 6.00
C#CCNC(=O)C(=O)NCc1ccccc1C(=O)NC1(c2cc(F)c(F)c(-c3cnn(C4CC4)c3)c2)CC1 [Example 242],> 7.00,> 6.00
C[C@@H](C#Cc1nccs1)NC(=O)C(=O)NCc1ccccc1C(=O)NC1(c2ccc3nn(C)cc3c2F)CC1 [Example 333],> 7.00,> 6.00
COc1cccnc1C#CCNC(=O)C(=O)NCc1ccccc1C(=O)NC1(c2ccc3nn(C)cc3c2)CC1 [Example 270],> 7.00,> 6.00
O=C(NCC#Cc1nccs1)C(=O)NCc1ccccc1C(=O)NC1(c2cc(F)cc(-c3cnn(C4CC4)c3)c2)CC1 [Example 243],> 7.00,> 6.00
O=C(NCC#Cc1nccs1)C(=O)NCc1ccccc1C(=O)NC1(c2cc(Cl)cc(-c3ncco3)c2)CC1 [Example 487],> 7.00,> 6.00
C#CCNC(=O)C(=O)NCc1ccccc1C(=O)NC1(c2cc(Cl)cc(-c3cnc(C(F)(F)F)nc3)c2)CC1 [Example 71],> 7.00,> 6.00
N#CCNC(=O)C(=O)NCc1ccccc1C(=O)NC1(c2cc(N3CC(O)C3)cc3ccccc23)CC1 [Example 330],> 7.00,5.00 to 6.00
COc1cccc(C#CCNC(=O)C(=O)NCc2ccccc2C(=O)NC2(c3ccc4ccccc4c3)CC2)n1 [Example 186],> 7.00,> 6.00
Cn1cc2cc(C3(NC(=O)c4ccccc4CNC(=O)C(=O)NCC#Cc4ncccc4Cl)CC3)ccc2n1 [Example 269],> 7.00,> 6.00

SMILES,pIC50 [1],pEC50 (SARS-CoV-2 replicon)
N#CN1CC(CNC(=O)C(=O)NCc2ccccc2C(=O)NC2(c3cccc4ccccc34)CC2)C1 [Example 435],> 7.00,> 6.00
COC(=O)/C=C/CNC(=O)C(=O)NCc1ccccc1C(=O)N[C@H](C)c1cc(-c2ccoc2)cc(C(F)(F)F)c1 [Example 465],> 7.00,> 6.00
COc1ccc2cccc(C3(NC(=O)c4ccccc4CNC(=O)C(=O)NCC#N)CC3)c2c1 [Example 348],> 7.00,5.00 to 6.00
N#CCNC(=O)C(=O)NCc1ccccc1C(=O)NC1(c2cc(-c3cnn(CC(F)F)c3)cc3ccccc23)CC1 [Example 286],> 7.00,> 6.00
O=C(NCC#Cc1nccs1)C(=O)NCc1ccccc1C(=O)NC1(c2cnc3ccccc3c2)CC1 [Example 393],> 7.00,5.00 to 6.00
N#CN1CC[C@@H](CNC(=O)C(=O)NCc2ccccc2C(=O)NC2(c3cccc4ccccc34)CC2)C1 [Example 509],> 7.00,> 6.00
Cc1n[nH]c(C)c1-c1cc(C2(NC(=O)c3ccccc3CNC(=O)C(=O)NCC#N)CC2)c2ccccc2c1 [Example 288],> 7.00,5.00 to 6.00
CONC(=O)/C=C/CNC(=O)C(=O)NCc1ccccc1C(=O)NC1(c2cccc3ccccc23)CC1 [Example 560],6.00 to 7.00,5.00 to 6.00
N#Cc1cccc(C#CCNC(=O)C(=O)NCc2ccccc2C(=O)NC2(c3ccc4ccccc4c3)CC2)n1 [Example 193],> 7.00,> 6.00
Cn1cc(-c2cc(C3(NC(=O)c4ccccc4CNC(=O)C(=O)NCC#N)CC3)ccc2F)cn1 [Example 231],> 7.00,< 5.00
C[C@@H](NC(=O)c1ccccc1CNC(=O)C(=O)NCC#Cc1nccs1)c1cc(F)cc(-c2cnn(C(F)F)c2)c1 [Example 492],> 7.00,> 6.00
COc1ccc(C2(NC(=O)c3ccccc3CNC(=O)C(=O)NCC#Cc3nccs3)CC2)cc1-c1cnn(C2CC2)c1 [Example 247],> 7.00,> 6.00
C#Cc1cc(C(F)(F)F)cc(C2(NC(=O)c3ccccc3CNC(=O)C(=O)NCC#N)CC2)c1 [Example 70],6.00 to 7.00,> 6.00
N#CCNC(=O)C(=O)NCc1ccccc1C(=O)NC1(c2cccc3c(Br)cccc23)CC1 [Example 310],> 7.00,> 6.00
Cn1ccc(-c2cc(C3(NC(=O)c4ccccc4CNC(=O)C(=O)NCC#N)CC3)c3ccccc3c2)n1 [Example 290],> 7.00,> 6.00
C[C@@H](C#Cc1nccs1)NC(=O)C(=O)NCc1ccccc1C(=O)N[C@H](C)c1cc(F)cc(-c2cnn(C3CC3)c2)c1 [Example 495],> 7.00,> 6.00
N#CCNC(=O)C(=O)NCc1ccccc1C(=O)NC1(c2cc(F)c(F)c(-c3cccs3)c2)CC1 [Example 239],> 7.00,< 5.00
O=C(NCC#Cc1nccs1)C(=O)NCc1ccccc1C(=O)NC1(c2cc(Cl)cc(-c3cnc(C4CC4)nc3)c2)CC1 [Example 83],> 7.00,> 6.00
O=C(NCC#CBr)C(=O)NCc1ccccc1C(=O)NC1(c2cc(Br)cc3ccccc23)CC1 [Example 154],> 7.00,> 6.00
N#CCNC(=O)C(=O)NCc1ccccc1C(=O)NC1(c2cccc(-c3cccs3)c2Cl)CC1 [Example 382],> 7.00,5.00 to 6.00
O=C(NCC#Cc1ccc(C(F)(F)F)cc1F)C(=O)NCc1ccccc1C(=O)NC1(c2ccc3ccccc3c2)CC1 [Example 175],6.00 to 7.00,5.00 to 6.00
